Source: article PMC8205226, “HIV-1 Integrase Inhibitors with Modifications That Affect Their Potencies against Drug Resistant Integrase Mutants” (ACS Infectious Diseases, 2021)

Key:
[1] = tested on: HIV-1 IN mutant Y143R; assay: single-round infectivity assay, Y143R IN mutant; assay type: cell-based
Description: (§1) Figure 2 Antiviral activities of the new compounds against RAL-resistant mutants. The EC50 values were determined using a vector that carries WT HIV-1 IN and the RAL-resistant mutants in a single round infection assay. […] Error bars represent the standard deviations of independent experiments, n = 4, performed in triplicate. The graph has a maximum value of 550 nM.
(§2) WT and mutant HIV-1 viral vectors were used in single-round infectivity assays to determine the antiviral potencies (EC50 values) of the compounds and the effects of the mutants on the EC50 values as previously described.[30],[54] Single round infectivity measurements were determined as done previously.[38]
(§3) The vector pNLNgoMIVR-ΔENV.LUC has been described previously.[26] To produce the new IN mutants used in this study, the IN open reading frame was removed from pNLNgoMIVR-ΔENV.LUC by digestion with KpnI and SalI, and the resulting fragment was inserted between the KpnI and SalI sites of pBluescript KS+. Using that construct as the wild-type template, we prepared the following HIV-1 IN mutants using the QuikChange II XL site directed mutagenesis kit (Agilent Technologies, Santa Clara, CA) protocol: N117A, N117H, P142A, P142H, P142S, Y143C, Y143H, S230R, R231G, and R231K. The following sense oligonucleotides were used with matching cognate antisense oligonucleotides (not shown) (Integrated DNA Technologies, Coralville, IA) in the mutagenesis: N117A, 5′-[…]-3′; N117H, 5′-[…]-3′; P142A, 5′-[…]-3′; P142H, 5′-[…]-3′; P142S, 5′-[…]-3′; Y143C, 5′- […]-3′; Y143H, 5′-[…]-3′; S230R, 5′- […]-3′; R231G, 5′-[…]-3′; R231K, 5′-[…]-3′.

[2] = tested on: HIV-1 IN mutant N155H; assay: single-round infectivity assay, N155H IN mutant; assay type: cell-based
Description: as §1, §2, §3

[3] = tested on: HIV-1 IN double mutant G140S/Q148H; assay: single-round infectivity assay, G140S/Q148H IN double mutant; assay type: cell-based
Description: as §1, §2, §3

[4] = tested on: HIV-1 IN mutant N117A; assay: single-round infectivity assay, N117A IN mutant; assay type: cell-based
Description: (§4) The EC50 values were determined using a vector that carries the IN mutant in a single round infection assay. […] Error bars represent the standard deviations of independent experiments, n = 4, performed in triplicate.
as §2, §3

[5] = tested on: HIV-1 IN mutant N117H; assay: single-round infectivity assay, N117H IN mutant; assay type: cell-based
Description: as §4, §2, §3

[6] = tested on: HIV-1 IN mutant G118R; assay: single-round infectivity assay, G118R IN mutant; assay type: cell-based
Description: as §4, §2, §3

[7] = tested on: HIV-1 IN mutant S119R; assay: single-round infectivity assay, S119R IN mutant; assay type: cell-based
Description: as §4, §2, §3

[8] = tested on: HIV-1 IN mutant Y143C; assay: single-round infectivity assay, Y143C IN mutant; assay type: cell-based
Description: (§5) Figure 4 Mutations in the β5-α3 loop affect the antiviral potencies of the new compounds. The EC50 values were determined using a vector that carries the IN mutant in a single round infection assay. […] Error bars represent the standard deviations of independent experiments, n = 4, performed in triplicate.
as §2, §3

[9] = tested on: HIV-1 IN mutant Y143H; assay: single-round infectivity assay, Y143H IN mutant; assay type: cell-based
Description: as §5, §2, §3

[10] = tested on: HIV-1 IN mutant P142A; assay: single-round infectivity assay, P142A IN mutant; assay type: cell-based
Description: as §5, §2, §3

[11] = tested on: HIV-1 IN mutant P142H; assay: single-round infectivity assay, P142H IN mutant; assay type: cell-based
Description: as §4
Single round infectivity measurements were determined as done previously.[38]
as §3

[12] = tested on: HIV-1 IN mutant P142S; assay: single-round infectivity assay, P142S IN mutant; assay type: cell-based
Description: as §5, §2, §3

[13] = tested on: HIV-1 IN mutant S230R; assay: single-round infectivity assay, S230R IN mutant; assay type: cell-based
Description: (§6) Figure 5 Antiviral potencies of the new compounds against IN with mutations in the […]. The EC50 values were determined using a vector that carries the IN mutant in a single round infection assay. […] Error bars represent the standard deviations of independent experiments, n = 4, performed in triplicate.
as §2, §3

[14] = tested on: HIV-1 IN mutant R231G; assay: single-round infectivity assay, R231G IN mutant; assay type: cell-based
Description: as §6, §2, §3

[15] = tested on: HIV-1 IN mutant R231K; assay: single-round infectivity assay, R231K IN mutant; assay type: cell-based
Description: as §6, §2, §3

[16] = tested on: WT HIV-1; details: vector carrying WT HIV-1 IN, single round infection; previously reported; cited from earlier work
[17] = tested on: HIV-1 IN mutant Y143R; details: single round infection; previously reported; cited from earlier work
[18] = tested on: HIV-1 IN mutant N155H; details: single round infection; previously reported; cited from earlier work
[19] = tested on: HIV-1 IN double mutant G140S/Q148H; details: single round infection; previously reported; cited from earlier work
[20] = fold change in EC50, IN mutant versus WT HIV-1

Question: Which “ratio of the EC50s (our compound relative to DTG) against Y143R” value ([1]; EC50 compound / EC50 DTG) does the source give for COC(=O)CNc1c(C(=O)NCc2ccc(F)cc2F)c(=O)n(O)c2ncccc12 [5′g] here?
Answer: 1.1

Question: And the “FC Y143R” value [1, 20]?
Answer: 1.2

Question: What about the “ratio of the EC50s (our compound relative to DTG) against N155H” value ([2]; EC50 compound / EC50 DTG) of the same compound?
Answer: 5.3

Question: What about the “FC N155H” value [2, 20] of the same compound?
Answer: 5.0

Question: And the “ratio of the EC50s (our compound relative to DTG) against G140S/Q148H” value ([3]; EC50 compound / EC50 DTG)?
Answer: 6.1

Question: What about the “FC G140S/Q148H” value [3, 20] of the same compound?
Answer: 9.3

Question: What about the “ratio of the EC50s (our compound relative to DTG) against N117A” value ([4]; EC50 compound / EC50 DTG) of the same compound?
Answer: 2.4

Question: And the EC50 ([4]; Human immunodeficiency virus 1, read-out: EC50 values N117A)?
Answer: 1.2 ± 0.2 nM

Question: And the “FC N117A” value [4, 20]?
Answer: 0.3

Question: And the “ratio of the EC50s (our compound relative to DTG) against N117H” value ([5]; EC50 compound / EC50 DTG)?
Answer: 2.3

Question: And the EC50 ([5]; Human immunodeficiency virus 1, read-out: EC50 values N117H)?
Answer: 5.6 ± 0.9 nM

Question: What about the “FC N117H” value [5, 20] of the same compound?
Answer: 1.5

Question: What about the “ratio of the EC50s (our compound relative to DTG) against G118R” value ([6]; EC50 compound / EC50 DTG) of the same compound?
Answer: 13.1

Question: What about the EC50 ([6]; Human immunodeficiency virus 1, read-out: EC50 values G118R) of the same compound?
Answer: 171 ± 3.2 nM

Question: And the “ratio of the EC50s (our compound relative to DTG) against S119R” value ([7]; EC50 compound / EC50 DTG)?
Answer: 9.7

Question: And the EC50 ([7]; Human immunodeficiency virus 1, read-out: EC50 values S119R)?
Answer: 22.3 ± 1.7 nM

Question: And the “FC S119R” value [7, 20]?
Answer: 5.9

Question: And the “ratio of the EC50s (our compound relative to DTG) against Y143C” value ([8]; EC50 compound / EC50 DTG)?
Answer: 28.1

Question: And the EC50 ([8]; Human immunodeficiency virus 1, read-out: EC50 values Y143C, single round infection, n = 4)?
Answer: 39.3 ± 7.3 nM

Question: What about the “FC Y143C” value [8, 20] of the same compound?
Answer: 10.3

Question: And the “ratio of the EC50s (our compound relative to DTG) against Y143H” value ([9]; EC50 compound / EC50 DTG)?
Answer: 3.6

Question: What about the EC50 ([9]; Human immunodeficiency virus 1, read-out: EC50 values Y143H, single round infection, n = 4) of the same compound?
Answer: 7.9 ± 1 nM

Question: What about the “FC Y143H” value [9, 20] of the same compound?
Answer: 2.1

Question: And the “ratio of the EC50s (our compound relative to DTG) against P142A” value ([10]; EC50 compound / EC50 DTG)?
Answer: 5.6

Question: What about the EC50 ([10]; Human immunodeficiency virus 1, read-out: EC50 values P142A) of the same compound?
Answer: 14.1 ± 0.3 nM

Question: What about the “FC P142A” value [10, 20] of the same compound?
Answer: 3.7

Question: What about the “ratio of the EC50s (our compound relative to DTG) against P142H” value ([11]; EC50 compound / EC50 DTG) of the same compound?
Answer: 4.6

Question: And the EC50 ([11]; Human immunodeficiency virus 1, read-out: EC50 values P142H)?
Answer: 12.8 ± 2.9 nM

Question: And the “FC P142H” value [11, 20]?
Answer: 3.4

Question: And the “ratio of the EC50s (our compound relative to DTG) against P142S” value ([12]; EC50 compound / EC50 DTG)?
Answer: 12.4

Question: And the EC50 ([12]; Human immunodeficiency virus 1, read-out: EC50 values P142S)?
Answer: 27.2 ± 4.4 nM

Question: What about the “FC P142S” value [12, 20] of the same compound?
Answer: 7.2

Question: And the “ratio of the EC50s (our compound relative to DTG) against S230R” value ([13]; EC50 compound / EC50 DTG)?
Answer: 1.0

Question: And the EC50 ([13]; Human immunodeficiency virus 1, read-out: EC50 values S230R)?
Answer: 4.5 ± 1.5 nM

Question: What about the “FC S230R” value [13, 20] of the same compound?
Answer: 1.2

Question: What about the “ratio of the EC50s (our compound relative to DTG) against R231G” value ([14]; EC50 compound / EC50 DTG) of the same compound?
Answer: 6.9

Question: What about the EC50 ([14]; Human immunodeficiency virus 1, read-out: EC50 values R231G) of the same compound?
Answer: 9.7 ± 2.4 nM

Question: And the “FC R231G” value [14, 20]?
Answer: 2.6

Question: What about the “ratio of the EC50s (our compound relative to DTG) against R231K” value ([15]; EC50 compound / EC50 DTG) of the same compound?
Answer: 2.2

Question: What about the EC50 ([15]; Human immunodeficiency virus 1, read-out: EC50 values R231K, single round infection, n = 4) of the same compound?
Answer: 9.2 ± 2.1 nM

Question: And the “FC R231K” value [15, 20]?
Answer: 2.4

Question: What about the EC50 [16] of the same compound?
Answer: 3.8 ± 1.2 nM

Question: What about the EC50 [17] of the same compound?
Answer: 4.6 ± 2.2 nM

Question: What about the EC50 [18] of the same compound?
Answer: 19 ± 6.9 nM

Question: And the EC50 [19]?
Answer: 35.5 ± 15.9 nM
